Molecules are shown by their SMILES.

The assay concerns the target T1, SLC6A14 (Homo sapiens, UniProt Q9UN76).
T1 construct: endogenous transporter in opened human intestinal organoids
T1 sequence (Q9UN76 1-642): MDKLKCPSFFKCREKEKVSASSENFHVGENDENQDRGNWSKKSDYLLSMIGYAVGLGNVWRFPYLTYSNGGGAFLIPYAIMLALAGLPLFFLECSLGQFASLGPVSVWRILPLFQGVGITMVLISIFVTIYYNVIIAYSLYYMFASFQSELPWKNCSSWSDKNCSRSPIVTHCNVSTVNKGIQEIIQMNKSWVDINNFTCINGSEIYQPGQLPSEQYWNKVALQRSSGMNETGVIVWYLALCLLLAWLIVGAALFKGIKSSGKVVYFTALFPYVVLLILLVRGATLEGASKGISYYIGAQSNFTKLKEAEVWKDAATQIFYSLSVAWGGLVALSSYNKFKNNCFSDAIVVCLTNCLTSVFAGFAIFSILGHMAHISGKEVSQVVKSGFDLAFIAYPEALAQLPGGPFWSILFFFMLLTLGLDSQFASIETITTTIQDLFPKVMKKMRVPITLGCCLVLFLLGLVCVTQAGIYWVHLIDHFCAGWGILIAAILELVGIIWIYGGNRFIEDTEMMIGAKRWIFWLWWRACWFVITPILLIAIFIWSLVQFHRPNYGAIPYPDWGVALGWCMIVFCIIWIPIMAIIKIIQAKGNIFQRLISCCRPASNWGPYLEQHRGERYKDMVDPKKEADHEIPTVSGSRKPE
Kind of assay: FLIPR membrane potential (AAC) assay, α-MT-sensitive electrogenic uptake at […]. The format is cell-based.

As to `N=C(N)NCCC[C@H](N)C(=O)O` [L-Arg], the “FLIPR membrane potential (AAC) assay, α-MT-sensitive electrogenic uptake at 1 mM” value is “the addition of arginine (L-Arg) to the apical surface of these opened organoids evokes apical membrane depolarization”.

Values taken from publication PMC8699884, “High-Throughput Functional Analysis of CFTR and Other Apically Localized Proteins in iPSC-Derived Human Intestinal Organoids” (Cells, 2021).
